Values after ≈ are worked out from the molar mass of the structure shown. Like-named read-outs stand apart in the source and are kept apart here. Peptide text beside a SMILES is read from it. * marks the point of attachment. βNA = c1ccc2cc(N*)ccc2c1

The test system of data set [1] is P. aeruginosa PS11 (Drug resistant). Kind of data set: MIC, ethyl gallate as activity enhancer of antibiotics, drug resistant P. aeruginosa. The data set is classed as cell-based, Pseudomonas aeruginosa. Conditions: for MIC: strain PS11; for MIC Antibiotic + ethyl gallate: combination with ethyl gallate; for Fold decrease in antibiotic concentration: on addition of ethyl gallate. The protocol:
(§1) This was carried out to assess the potential of the compound to enhance antimicrobial activity and overcome antibacterial resistance.
K. pneumonia isolate was collected from Gian Sagar medical college, Patiala and characterized in Immuno-parasitoloy Lab, Shoolini University, Solan for multidrug resistance. P. aeruginosa drug resistant strain was collected from Gian Sagar medical college, Patiala and characterized in Immunoparasitoloy Lab, Shoolini University, Solan.

The subject of data set [2] is P. aeruginosa Strain MTCC-471 (Drug sensitive or control). Kind of data set: MIC, ethyl gallate as activity enhancer of antibiotics, drug sensitive P. aeruginosa. The data set is classed as cell-based, Pseudomonas aeruginosa. The following applies: for MIC: Pseudomonas aeruginosa, MTCC471, agent alone (group A ethyl gallate alone, group B antibiotics alone), read-out: Minimum Inhibitory Concentration (MIC); for MIC / Minimum Inhibitory Concentration (MIC): strain MTCC-471; for MIC Antibiotic + ethyl gallate: combination with ethyl gallate; for Minimum Inhibitory Concentration (MIC): group C: antibiotic + Ethyl gallate 1000 μg/ml; for Fold decrease in antibiotic concentration: on addition of ethyl gallate. The protocol:
as §1
(§2) The resistant & sensitive control strains of K. pneumonia were procured from Dr. Enrique Llobet, CIBERES, Bunyola, Spain, Dr. Mazzariol of Verona University, Italy and one sensitive control strain were procured from IMTECH, Chandigarh (Table-2). Pseudomonas aeruginosa control cultures (Sensitive & Resistant) were procured from Dr. Thilo Kohler, University of Geneva, and Department of Microbiology and Molecular Medicine Geneve, Switzerland and one sensitive control strain were procured from IMTECH, Chandigarh (Table-3).

Data set [3] deals with K. pneumonia 1740 knockout (Drug resistant). The data set is classed as cell-based, Klebsiella pneumonia. Conditions: for MIC Antibiotic + ethyl gallate: combination with ethyl gallate; for MIC: group C: antibiotic + Ethyl gallate 1000 μg/ml, strain 1740 knockout; for Fold decrease in antibiotic concentration: on addition of ethyl gallate. The protocol:
as §1, §2

Data set [4] concerns K. pneumonia Strain 52145 (Drug sensitive or control). As to the kind of experiment: MIC, ethyl gallate as activity enhancer of antibiotics, drug sensitive K. pneumonia. The data set is classed as cell-based, Klebsiella pneumonia. The following applies: for MIC: Klebsiella pneumoniae; for MIC Antibiotic + ethyl gallate: combination with ethyl gallate; for Minimum Inhibitory Concentration (MIC): group C: antibiotic + Ethyl gallate 1000 μg/ml; for Fold decrease in antibiotic concentration: on addition of ethyl gallate. The protocol:
as §1, §2

Data set [5] can be described thus: Solubility of the extracted compound. Conditions: compound extracted from T. chebula. The data set is classed as physicochemical. The protocol:
Then column chromatography was performed on silica gel to extract the compound. 6 fractions for T. chebula plant were obtained by column chromatography. All fractions of T. chebula were subjected for their synergistic activity. The fraction showing synergistic activity was then characterized to know the physical properties of bioactive molecule and the molecular weight of bioactive molecule was determined by LCMS and the structure was elucidated by NMR.

For data set [6], the system named is Pseudomonas aeruginosa. The following applies: against Pseudomonas aeruginosa; Barrett J F (2001); cited from earlier work.
Where [7] appears, read: Pseudomonas aeruginosa, agent alone (group A ethyl gallate alone, group B antibiotics alone), read-out: MIC.
[8] abbreviates: Resistant Strain, P. aeruginosa PS11.
Where [9] appears, read: group C: antibiotic + Ethyl gallate 1000 μg/ml.
Where [10] appears, read: Sensitive Strain, P. aeruginosa MTCC-471.
[11] abbreviates: Resistant Strain, K. pneumonia 1740 knockout.
[12] abbreviates: Table 4 (K. pneumonia, both strains), agent alone, read-out: MIC.
[13] abbreviates: agent alone (group A ethyl gallate alone, group B antibiotics alone), strain 52145, read-out: Minimum Inhibitory Concentration (MIC).
[14] abbreviates: Sensitive Strain, K. pneumonia 52145.

On to `O=C(N[C@H](CO)[C@H](O)c1ccc([N+](=O)[O-])cc1)C(Cl)Cl` [Chloramphenicol], for which the MIC in data set [1] (setting [7]) is 2 µg/mL; in data set [1] (setting [9]) it was 1.00 µg/mL; in data set [2], 1 µg/mL; in data set [3], 0.500 µg/mL; in data set [4] (setting [12]), 2 µg/mL; in data set [4] (setting [13]), 2 µg/mL. In addition, the MIC Antibiotic Alone was 2 µg/mL in data set [1] (setting [8]), 1 µg/mL in data set [2] (setting [10]), 2 µg/mL (≈ 6.19 µM) in data set [3] (setting [11]) and 2.000 in data set [4] (setting [14]). Besides, the MIC Antibiotic + ethyl gallate in data set [1] (setting [8]) came out at 1 µg/mL; in data set [2] (setting [10]), 0.05 µg/mL; in data set [3] (setting [11]), 0.5 µg/mL; in data set [4] (setting [14]) it was 1.000. Moreover, the “Fold decrease in antibiotic concentration” value is 2 fold in data set [1] (setting [8]), 20 fold in data set [2] (setting [10]), 4 fold in data set [3] (setting [11]) and 2 fold in data set [4] (setting [14]). Moreover, the “Minimum Inhibitory Concentration (MIC)” value in data set [2] came out at 0.050 µg/mL; in data set [4] (strain 52145) it was 1.000 µg/mL.

Turning to `O=C(O)c1cn(C2CC2)c2cc(N3CCNCC3)c(F)cc2c1=O` [Ciprofloxacin], the MIC in data set [1] (setting [7]) amounted to 2 µg/mL; in data set [1] (setting [9]) it was 1.00 µg/mL; in data set [3] it was 0.003 µg/mL; in data set [4] (setting [13]) it was 0.06 µg/mL. Further, the MIC Antibiotic Alone in data set [1] (setting [8]) stood at 2 µg/mL; in data set [4] (setting [14]), 0.060. The MIC Antibiotic + ethyl gallate stood at 1 µg/mL in data set [1] (setting [8]), 0.06 µg/mL in data set [2] (setting [10]), 0.003 µg/mL in data set [3] (setting [11]) and 0.003 in data set [4] (setting [14]). Also, the “Minimum Inhibitory Concentration (MIC)” value in data set [2] was found to be 0.060 µg/mL; in data set [4] (strain 52145), 0.003 µg/mL.

For `CCOC(=O)c1cc(O)c(O)c(O)c1` [Ethyl gallate, ethyl gallate], the MIC in data set [1] (setting [7]) stood at 2 µg/mL; in data set [2], 0.06 µg/mL; in data set [4] (setting [12]), 2 µg/mL; in data set [4] (setting [13]) it was 2 µg/mL. Besides, the MIC Ethyl gallate was determined as 2 µg/mL in data set [1] (Resistant Strain, P. aeruginosa PS11, ethyl gallate alone); 0.06 µg/mL in data set [2] (Sensitive Strain, P. aeruginosa MTCC-471, ethyl gallate alone); 2 µg/mL (≈ 10.1 µM) in data set [3] (Resistant Strain, K. pneumonia 1740 knockout, ethyl gallate alone); 2.000 in data set [4] (Sensitive Strain, K. pneumonia 52145, ethyl gallate alone). Further, the solubility entry in data set [5] is “soluble in methanol and water”.

For `N=C(N)NCCC[C@H](NC(=O)[C@@H](N)Cc1ccccc1)C(=O)Nc1ccc2ccccc2c1` [PAβN, L-phenylalanyl-L-arginyl-b naphthylamide] (H-Phe-Arg-βNA), the “potentiation of the activity of levofloxacin” value in data set [6] is recorded as 8 fold.

Turning to `CN(C)[C@@H]1C(O)=C(C(N)=O)C(=O)[C@@]2(O)C(O)=C3C(=O)c4c(O)cccc4[C@@](C)(O)[C@H]3C[C@@H]12` [Tetracycline], the MIC in data set [1] (setting [7]) was 2 µg/mL; in data set [1] (setting [9]) it was 0.50 µg/mL; in data set [2] it was 0.125 µg/mL; in data set [3] it was 0.500 µg/mL; in data set [4] (setting [12]) it was 2 µg/mL; in data set [4] (setting [13]), 2 µg/mL. Further, the MIC Antibiotic Alone in data set [1] (setting [8]) turned out to be 2 µg/mL; in data set [2] (setting [10]), 0.125 µg/mL; in data set [3] (setting [11]), 2 µg/mL (≈ 4.5 µM); in data set [4] (setting [14]), 2.000. Further, the MIC Antibiotic + ethyl gallate in data set [1] (setting [8]) was 0.5 µg/mL; in data set [2] (setting [10]), 0.06 µg/mL; in data set [3] (setting [11]), 0.5 µg/mL; in data set [4] (setting [14]), 0.500. Besides, the “Fold decrease in antibiotic concentration” value in data set [1] (setting [8]) was found to be 4 fold; in data set [2] (setting [10]), 2 fold; in data set [3] (setting [11]), 4 fold; in data set [4] (setting [14]), 4 fold. Besides, the “Minimum Inhibitory Concentration (MIC)” value in data set [2] was determined as 0.060 µg/mL; in data set [4] (strain 52145), 0.500 µg/mL.

These data come from patent US20190125712A1, “COMPOUND FOR ENHANCING ACTIVITY OF ANTIBIOTIC COMPOSITIONS AND OVERCOMING DRUG RESISTANCE” (SHOOLINI UNIVERSITY OF BIOTECHNOLOGY AND MANAGEMENT SCIENCES, priority 2015, published 2019).
